Laboratory results: patent US20110124579A1, “SIALIC ACID TO SUPPORT SALIVATION” (NESTEC S.A., priority 2008, published 2011)
Entries after “also recorded” stand apart in the source; their conditions may differ.

System: rats
Test: Pilocarpine stimulated salivation (cholinergic neuronal activity) in young adult and aged rats after 3 weeks on diet
Type: in vivo, rat
Method: Young adult (3 months) and aged rats (24 months) were fed a semisynthetic diet containing sialic acid at a concentration of 0.15 g/100 g diet (control) or a semi-synthetic diet additionally supplemented with sialic acid to a final concentration of 0.9 g/100 g diet (Sia).
After 3 weeks on the experimental diet neuronal activity of cholinergic neurons was assessed. To this end rats were injected pilocarpine (IP, 1.5 mg/kg body weight for 24 months rats and 2 mg/kg body weight for 3 months rats). Pilocarpine is a muscarinic agonist acting on cholinergic neurons, which leads to salivation. Thus stimulated saliva collection was timed with a chronometer. After about 7 minutes collection was stopped.

## CC(=O)N[C@H]1[C@H]([C@H](O)[C@H](O)CO)OC(O)(C(=O)O)C[C@@H]1O (some centres unmarked) [sialic acid, N-acetylneuraminic acid]
Aged rats (24 months), diet supplemented with sialic acid to 0.9 g/100 g diet vs control 0.15 g/100 g, 3 weeks, pilocarpine IP 1.5 mg/kg, 1.5 mg/kg
  stimulated salivation / neuronal activity of cholinergic neurons (stimulated saliva production per time): increased stimulated salivation equal to the salivation found in young animals; also recorded: significantly increased neuronal activity; also recorded: reached similar stimulated salivation values as the young animals; also recorded: proper salivation was re-established in aged animals
Young adult (3 m) and old age (24 m) rats, NeuAc enriched diet vs control diet for 3 weeks, FIG. 2, N=8-10
  Pilocarpine stimulated salivation, aged vs young adult rats: increased stimulated salivation in aged rats much more efficiently than in young adult rats
